Legend:
Type in all cases: cell-based
[1] = target: T1, wild-type Androgen Receptor (AR-wt) (Homo sapiens (Human), UniProt P10275); assay: LNCaP-AR-wt AG reporter assay (agonist mode); settings: agonist mode; for Emax: maximum % stimulation over tested concentration range, read-out: LNCaP-AR-wt AG MAX % Stim; for EC50: pEC50 = −Log10(EC50 in Molar), read-out: LNCaP-AR-wt AG pEC50 (converted)
[2] = target: T1, wild-type Androgen Receptor (AR-wt); assay: LNCaP-AR-wt ANT reporter assay (antagonist mode); settings: antagonist mode; for Emax: maximum % inhibition of R1881 control response over tested concentration range, read-out: LNCaP-AR-wt ANT MAX % Inh; for IC50: pIC50 = −Log10(IC50 in Molar), read-out: LNCaP-AR-wt ANT pIC50 (converted)
[3] = target: T2, F876L mutant Androgen Receptor (AR-F876L) (Homo sapiens (Human), UniProt P10275, F877L); assay: LNCaP-AR-F876L ANT reporter assay (antagonist mode); settings: antagonist mode; for Emax: maximum % inhibition of R1881 control response over tested concentration range, read-out: LNCaP-AR-F876L ANT MAX % Inh; for IC50: pIC50 = −Log10(IC50 in Molar), read-out: LNCaP-AR-F876L ANT pIC50 (converted)
[4] = target: T2, F876L mutant Androgen Receptor (AR-F876L); assay: LNCaP-AR-F876L AG reporter assay (agonist mode); settings: agonist mode; for Emax: maximum % stimulation over tested concentration range, read-out: LNCaP-AR-F876L AG MAX % Stim; for EC50: pEC50 = −Log10(EC50 in Molar), read-out: LNCaP-AR-F876L AG pEC50 (converted)

T1 sequence (P10275 whole entry): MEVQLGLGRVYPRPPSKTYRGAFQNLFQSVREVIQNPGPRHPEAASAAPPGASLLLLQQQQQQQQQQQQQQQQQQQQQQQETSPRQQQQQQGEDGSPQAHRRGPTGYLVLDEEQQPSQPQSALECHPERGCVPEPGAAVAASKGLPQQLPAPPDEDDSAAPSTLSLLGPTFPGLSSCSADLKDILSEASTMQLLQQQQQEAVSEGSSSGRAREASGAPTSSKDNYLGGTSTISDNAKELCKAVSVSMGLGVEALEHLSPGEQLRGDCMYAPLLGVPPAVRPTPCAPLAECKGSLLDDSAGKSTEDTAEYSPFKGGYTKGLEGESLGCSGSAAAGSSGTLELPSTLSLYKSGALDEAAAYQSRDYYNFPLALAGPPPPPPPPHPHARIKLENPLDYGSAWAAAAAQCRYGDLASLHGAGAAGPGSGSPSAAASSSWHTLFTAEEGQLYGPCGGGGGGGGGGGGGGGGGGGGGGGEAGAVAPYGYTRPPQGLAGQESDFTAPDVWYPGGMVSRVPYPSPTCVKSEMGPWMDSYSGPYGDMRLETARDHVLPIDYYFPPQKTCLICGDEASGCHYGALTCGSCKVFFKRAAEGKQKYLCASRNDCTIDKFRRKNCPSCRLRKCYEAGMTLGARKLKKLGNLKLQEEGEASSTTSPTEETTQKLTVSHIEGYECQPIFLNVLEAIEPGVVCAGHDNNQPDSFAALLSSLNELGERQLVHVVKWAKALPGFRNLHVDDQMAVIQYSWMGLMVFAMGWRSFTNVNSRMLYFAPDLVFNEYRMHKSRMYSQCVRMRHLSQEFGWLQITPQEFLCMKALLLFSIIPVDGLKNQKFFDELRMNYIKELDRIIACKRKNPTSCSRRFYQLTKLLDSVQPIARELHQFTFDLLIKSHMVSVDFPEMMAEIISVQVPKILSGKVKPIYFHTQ
T2 sequence (P10275 whole entry F877L): as the sequence (P10275 whole entry) above, with F877L counted along it

Structure (SMILES)	Emax [1] [%]	EC50 [1] [nM]	Emax [2] [%]	IC50 [2] [nM]	Emax [3] [%]	IC50 [3] [nM]	Emax [4] [%]	EC50 [4] [nM]
COc1cc(N2C(=O)C3(CCC3)N(c3ccc4c(cnn4C4CCNCC4)c3)C2=S)cnc1C#N [Cpd 211, 3-methoxy-5-[5-oxo-8-[1-(4-piperidyl)indazol-5-yl]-7-thioxo-6,8-diazaspiro[3.4]octan-6-yl]pyridine-2-carbonitrile]	0.5	> 15100	101	1050	101	363	0.1	> 15100
COc1cc(N2C(=O)C3(CCC3)N(c3ccc4c(cnn4C4CCN(C(C)=O)CC4)c3)C2=S)cnc1C#N [Cpd 212, 5-[8-[1-(1-acetyl-4-piperidyl)indazol-5-yl]-5-oxo-7-thioxo-6,8-diazaspiro[3.4]octan-6-yl]-3-methoxy-pyridine-2-carbonitrile]	0.2	> 15100	102	135	96.1	331	1.5	> 15100
COc1cc(N2C(=O)C3(CCC3)N(c3ccc4c(cnn4C4CCN(C)CC4)c3)C2=S)cnc1C#N [Cpd 213, 3-methoxy-5-[8-[1-(1-methyl-4-piperidyl)indazol-5-yl]-5-oxo-7-thioxo-6,8-diazaspiro[3.4]octan-6-yl]pyridine-2-carbonitrile]	0.2	> 15100	102	550	100	282	0.1	> 15100
COc1cc(N2C(=O)C3(CCC3)N(c3ccc4nn(C5CCNCC5)cc4c3)C2=S)cnc1C#N [Cpd 214, 3-methoxy-5-[5-oxo-8-[2-(4-piperidyl)indazol-5-yl]-7-thioxo-6,8-diazaspiro[3.4]octan-6-yl]pyridine-2-carbonitrile]	0.3	> 15100	100	288	99.9	219	0	> 15100
COc1cc(N2C(=O)C3(CCC3)N(c3ccc4nn(C5CCN(C)CC5)cc4c3)C2=S)cnc1C#N [Cpd 215, 3-methoxy-5-[8-[2-(1-methyl-4-piperidyl)indazol-5-yl]-5-oxo-7-thioxo-6,8-diazaspiro[3.4]octan-6-yl]pyridine-2-carbonitrile]	0	> 15100	101	347	101	240	0.1	> 15100
CN1CC(CNC(=O)c2ccc(N3C(=S)N(c4cnc(C#N)c(C(F)(F)F)c4)C(=O)C34CCC4)cc2)C1 [Cpd 216, 4-[6-[6-cyano-5-(trifluoromethyl)-3-pyridyl]-5-oxo-7-thioxo-6,8-diazaspiro[3.4]octan-8-yl]-N-[(1-methylazetidin-3-yl)methyl]benzamide]	0.1	> 15100	98.8	1620	98.7	1480	0	> 15100
N#Cc1ncc(N2C(=O)C3(CCC3)N(c3ccc(CN4CCOCC4)cc3)C2=S)cc1C(F)(F)F [Cpd 217, 5-[8-[4-(morpholinomethyl)phenyl]-5-oxo-7-thioxo-6,8-diazaspiro[3.4]octan-6-yl]-3-(trifluoromethyl)pyridine-2-carbonitrile]	0.4	> 15100	102	372	100	355	0.1	> 15100
CN1CC[C@H](CNC(=O)c2ccc(N3C(=S)N(c4cnc(C#N)c(C(F)(F)F)c4)C(=O)C34CCC4)cc2F)C1 [Cpd 218, 4-[6-[6-cyano-5-(trifluoromethyl)-3-pyridyl]-5-oxo-7-thioxo-6,8-diazaspiro[3.4]octan-8-yl]-2-fluoro-N-[[(3R)-1-methylpyrrolidin-3-yl]methyl]benzamide]	0	> 15100	102	1170	99.6	912	0.1	> 15100
CN1CCN(Cc2ccc(N3C(=S)N(c4cnc(C#N)c(Cl)c4)C(=O)C34CCC4)cc2)CC1 [Cpd 219, 3-chloro-5-[8-[4-[(4-methylpiperazin-1-yl)methyl]phenyl]-5-oxo-7-thioxo-6,8-diazaspiro[3 4]octan-6-yl]pyridine-2-carbonitrile]	0.3	> 15100	102	372	101	347	0.2	> 15100
